Legend:
Format in all cases: in vivo
DIO mice = experiment: Body composition in high fat diet mice, alone and in combination with incretin mimetics; conditions: for Fat mass (% change from baseline) / Lean mass (% change from baseline): as E44, NMR
Procedure: Experiments were performed in vivo to investigate the potential for additive or synergistic effects between exemplary ActRIIB-ECD polypeptide constructs and incretin mimetics.

[1] = Coformulation of P1372 and semaglutide: weight and body composition in mice (FIG. 18)
[2] = Single subcutaneous injection in CD-1 mice: body weight; conditions: CD-1 male mice, single s.c. injection; P1229 50 mg/kg, semaglutide 2 mg/kg
[3] = tested on: follicle-stimulating hormone (FSH); experiment: Circulating FSH levels in CD-1 mice; conditions: single s.c. injection, P1229 50 mg/kg, semaglutide 2 mg/kg
Procedure: Finally, circulating FSH levels were assessed throughout the study (FIG. 20D). […] This confirms that the expected pharmacodynamic effect of P1229 was not altered in the context of the co-formulation.

With semaglutide [reference compound] the “Body weight (% change from baseline)” value (DIO mice; DIO mice, 21 days s.c., P1307 20 mg/kg weekly, P1229 40 mg/kg twice weekly, semaglutide 40 μg/kg daily, tirzepatide 45 μg/kg daily, alone or combined) was −17.5%, the “visceral, epididymal, pericardial, peri-renal, and retroperitoneal white adipose tissue weights” value (DIO mice; DIO mice, D21) was “significantly decreased all white adipose tissue weights” and the “gastrocnemius and tibialis anterior weights” value (DIO mice; DIO mice, D21, P1229 with or without caloric restriction) was “no significant effect on muscle weights”. The “Fat mass (% change from baseline)” value (DIO mice) was −30.3%, the “Lean mass (% change from baseline)” value (DIO mice) was −10.6% and the “Fat mass (% change from baseline)” value (DIO mice; listed as semaglutide) was −30.3%. The “Lean mass (% change from baseline)” value (DIO mice; listed as semaglutide) was −10.6%, the lean muscle mass ([1]; 3 weeks) was “significant loss of lean muscle mass” and the total weight loss ([1]; 3 weeks after treatment) was “significant weight loss”. The body weight [2] was “decreased body weight” and the “decrease of circulating FSH levels” value [3] was “did not show a significant effect”.

From patent US20260193317A1, “COMBINATION THERAPY WITH ACTRIIB RECEPTOR VARIANTS AND GLP-1 AGONISTS” (35PHARMA Inc., priority 2023, published 2026)
